Values quoted from earlier work in patent publication US6713950B2, “Low volatility slurry for emission mix powder” (General Electric Company, priority 2001, dated 2004).

System: rats

polyethylene glycol 200 [PEG 200]
oral LD50: 28 g/kg
